From patent US20220105041A1, “METHOD FOR MANUFACTURING A SOLID ADMINISTRATION FORM AND SOLID ADMINISTRATION” (priority 2019, published 2022)

Assay: Dissolution (release of caffeine) of 3D printed tablets, paddle method, Sotax AT 7smart
Assay type: physicochemical
Details: 900 ml 0.1 n HCl, 37° C., paddle 100 rpm, UV 272 nm
Protocol: Release of caffeine as active ingredient is determined using the Sotax Freisetzungsapparatur Sotax AT 7smart (Sotax AG, Lörrach, Germany) […]
Each sample is collected in a test tube with the automatic sampler.
Device: Release apparatus: Sotax AT 7smart (Sotax AG, Lörrach, Germany), Photometer Agilent 8453 (Agilent Technologies, Waldbronn, Germany)
Temperature of medium: 37° C.
Cuvette layer thickness: 10 mm
FIG. 31 illustrates results achieved by dissolution measurement of 3D printed caffeine containing tablets in 900 ml of 0.1 n HCl. […] To dissolute and release the full API amount of a filled tablet (100%) needs 360 minutes for entire release of the comprising API, while a 3D printed tablet, 50% filled, already releases 100% of the comprising API amount after app 30 minutes in the dissolution equipment. The time measured is […] dissolving pure crystalline caffeine particles tested in comparison by 100% after app 5 minutes.

Cn1c(=O)c2c(ncn2C)n(C)c1=O [pure crystalline caffeine, Caffeine]
time to release 100% (full amount) of API caffeine: ~5 min
